Data on 1 compound can be found in patent publication US11180503B2, “[1,2,4]Triazolo[4,3-A]pyrazin-6(5H)-one derivatives” (Eli Lilly and Company, priority 2017, dated 2021).

Format in all cases: biochemical
One assay deals with human PDE1C (Homo sapiens (Human), UniProt Q14123). Description: Ca2+-calmodulin dependent PDE enzyme assay (radiometric SPA, [3H]cAMP). The conditions noted are these: human PDE1C 0.0012 nM, [3H]cAMP 47 nM; read-out: PDE 1C IC50. The source says:
(§1) The nucleotide sequences encoding full-length human PDE1A (NP_001003683.1) and PDE1C (NP_005011.1) are inserted into pFastBac1 (Invitrogen) vector with an N-terminal HIS tag. The nucleotide sequences encoding full-length human PDE4D (NP_006194.2) and catalytic domain (residue 641-1141) of PDE3A (NP_000912.3) are inserted into pFastBac1 (Invitrogen) vector with a C-terminal HIS tag. The nucleotide sequences encoding full-length human PDE6A (NP_000431.2) and PDE6B (AAH00249.1) are inserted into pFastBacDual (Invitrogen) vector with an N-terminal HIS tag and N-terminal Flag tag, respectively, for production of PDE6A/6B dimer. Baculovirus generation and protein expression in Sf9 cells are carried out according to the protocol of Bac-to-Bac Baculovirus Expression system (Invitrogen). The nucleotide sequence encoding full-length human PDE1B (NP_000915.1) is inserted into pIEX4 (Novagen) with a C-terminal HIS tag, and both protein productions in Sf9 cells are carried out according to the vendor's protocol (Novagen). The His tagged PDE proteins are purified using Ni-NTA agarose (Qiagen) followed by size exclusion chromatography on a SUPERDEX® 200 column (GE Healthcare) in storage buffer (20 mM Tris-HCl, pH7.5, 150 mM NaCl, 10% Glycerol). The Flag tagged PDE proteins including PDE6A/6B are purified using anti-Flag M2-agarose (Sigma), after purification through NiNTA column chromatography and eluted in storage buffer (50 mM Tris-HCl, pH7.5, 150 mM NaCl, 10% Glycerol, 0.1 mg/ml Flag peptide). All purified proteins are stored at −80° C. in small aliquots.
(§2) All 3′,5′ cyclic nucleotide phosphodiesterase (PDE) enzyme activities are measured with a radiometric enzyme assay based on SPA detection system (scintillation proximity assay). Compounds to be tested are diluted in pure dimethyl sulfoxide (DMSO) using ten point concentration response curves. Maximal compound concentration in the reaction mixture is either 10 or 100 μM. Compounds at the appropriate concentration are pre-incubated with either of the PDE enzymes for 30 minutes before the reaction is started by the addition of substrate. Reactions are allowed to proceed for 60 minutes at room temperature. Next, reactions are stopped by addition of SPA beads. Samples are read 12 hours later in a MICROBETA™ TRILUX® Counter. “IC50” refers to the concentration of the compound that produces 50% of the maximal inhibitory response possible for that compound. IC50 values are calculated by plotting the normalized data vs. log [compound] and fitting the data using a four parameter logistic equation.
(§3) PDE1B, PDE1A, and PDE1C are cloned and purified following standard protein generation procedures. The assay buffer is prepared to give a final concentration in the assay of 50 mM Tris-HCl, 50 mM MgCl2, 4 mM CaCl2, 0.1% Bovine serum albumin and 6 U/ml Calmodulin in water, at pH 7.5. The final enzyme concentration is 0.25, 0.074 and 0.0012 nM, for PDE1A, PDE1B and PDE1C respectively. The reactions are started by addition of the substrate, [^3H]cAMP, to give a final concentration of 47 nM.

A further assay deals with human PDE1B (Homo sapiens (Human), UniProt Q01064). The description is as above. The following applies: human PDE1B 0.074 nM, [3H]cAMP 47 nM; read-out: PDE 1B IC50.
Source text: as §1, §2, §3

The target of another assay is human PDE1A (Homo sapiens (Human), UniProt P54750). The description is as above. The following applies: human PDE1A 0.25 nM, [3H]cAMP 47 nM; read-out: PDE 1A IC50.
Source text: as §1, §2, §3

A further assay deals with human PDE4D (Homo sapiens (Human), UniProt Q08499). Nature of the assay: PDE enzyme assay using [3H]cAMP as substrate (radiometric SPA). The conditions noted are these: human PDE4D 0.021 nM, [3H]cAMP 47 nM; read-out: PDE 4D IC50.
Source text: as §1, §2
(§4) The following phosphodiesterase activities are measured using [^3H]cAMP as reaction substrate: human PDE3A (catalytic domain) and human PDE4D. Both enzymes are cloned and purified following standard procedures. The assay buffer is prepared to give a final concentration in the assay of 50 mM Tris-HCl, 8.3 mM MgCl2, 1.7 mM ethylenediaminetetraacetic acid (EDTA) and 0.1% Bovine serum albumin at pH 7.5. Final enzyme concentrations are 0.008 and 0.021 nM for PDE3A and PDE4D, respectively. Reactions are started by addition of the substrate, [^3H]cAMP, to give a final concentration of 47 nM.

In assay [1] the target is human PDE3A (catalytic domain) (Homo sapiens (Human), UniProt Q14432). Described as above. The conditions noted are these: human PDE3A catalytic domain 0.008 nM, [3H]cAMP 47 nM.
Source text: as §1, §2, §4

The target of another assay is human PDE6A/6B (Homo sapiens (Human), UniProt P16499+P35913). Description: PDE enzyme assay using [3H]cGMP as substrate (radiometric SPA). The conditions noted are these: human PDE6A/6B dimer 5 nM, [3H]cGMP 80 nM; read-out: PDE 6AB IC50.
Source text: as §1, §2
The following phosphodiesterase activities are measured using [^3H]cGMP as reaction substrate: human PDE6A/6B. The catalytic active form of human PDE6 is a dimer composed of a α (human PDE6A) and β subunits (human PDE6B). The dimer of human PDE6A/6B is produced by the coexpression and purification strategy, using two purification steps, i.e., NiNTA and anti-FLAG Sepharose chromatography. The assay buffer is prepared to give a final concentration in the assay of 50 mM Tris-HCl, 8.3 mM MgCl2, 1.7 mM EDTA and 0.1% Bovine serum albumin at pH 7.5. The final enzyme concentration is 5 nM. The reactions are started by addition of the substrate, [^3H]cGMP, to give a final concentration of 80 nM.

human PDE4D, sequence (Q08499 other isoform, or with tags, fused parts or gaps): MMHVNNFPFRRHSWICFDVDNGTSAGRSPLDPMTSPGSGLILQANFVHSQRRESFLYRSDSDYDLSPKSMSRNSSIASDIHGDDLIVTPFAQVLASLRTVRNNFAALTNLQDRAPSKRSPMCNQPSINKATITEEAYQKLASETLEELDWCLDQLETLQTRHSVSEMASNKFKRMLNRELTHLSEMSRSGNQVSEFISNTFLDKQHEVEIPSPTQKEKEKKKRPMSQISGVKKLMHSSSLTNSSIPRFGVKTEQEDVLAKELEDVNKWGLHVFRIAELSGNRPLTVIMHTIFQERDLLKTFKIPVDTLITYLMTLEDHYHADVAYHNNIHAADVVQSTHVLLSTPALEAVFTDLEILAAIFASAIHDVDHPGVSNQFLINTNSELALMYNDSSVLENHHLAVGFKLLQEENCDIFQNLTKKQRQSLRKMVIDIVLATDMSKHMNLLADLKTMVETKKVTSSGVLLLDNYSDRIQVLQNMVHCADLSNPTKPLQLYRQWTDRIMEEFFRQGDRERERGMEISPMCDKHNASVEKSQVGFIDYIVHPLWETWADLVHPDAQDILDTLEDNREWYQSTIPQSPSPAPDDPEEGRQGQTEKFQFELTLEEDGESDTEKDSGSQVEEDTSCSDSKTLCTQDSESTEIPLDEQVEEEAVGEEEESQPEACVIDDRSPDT
human PDE6A/6B, sequence (P16499 whole entry, change not shown): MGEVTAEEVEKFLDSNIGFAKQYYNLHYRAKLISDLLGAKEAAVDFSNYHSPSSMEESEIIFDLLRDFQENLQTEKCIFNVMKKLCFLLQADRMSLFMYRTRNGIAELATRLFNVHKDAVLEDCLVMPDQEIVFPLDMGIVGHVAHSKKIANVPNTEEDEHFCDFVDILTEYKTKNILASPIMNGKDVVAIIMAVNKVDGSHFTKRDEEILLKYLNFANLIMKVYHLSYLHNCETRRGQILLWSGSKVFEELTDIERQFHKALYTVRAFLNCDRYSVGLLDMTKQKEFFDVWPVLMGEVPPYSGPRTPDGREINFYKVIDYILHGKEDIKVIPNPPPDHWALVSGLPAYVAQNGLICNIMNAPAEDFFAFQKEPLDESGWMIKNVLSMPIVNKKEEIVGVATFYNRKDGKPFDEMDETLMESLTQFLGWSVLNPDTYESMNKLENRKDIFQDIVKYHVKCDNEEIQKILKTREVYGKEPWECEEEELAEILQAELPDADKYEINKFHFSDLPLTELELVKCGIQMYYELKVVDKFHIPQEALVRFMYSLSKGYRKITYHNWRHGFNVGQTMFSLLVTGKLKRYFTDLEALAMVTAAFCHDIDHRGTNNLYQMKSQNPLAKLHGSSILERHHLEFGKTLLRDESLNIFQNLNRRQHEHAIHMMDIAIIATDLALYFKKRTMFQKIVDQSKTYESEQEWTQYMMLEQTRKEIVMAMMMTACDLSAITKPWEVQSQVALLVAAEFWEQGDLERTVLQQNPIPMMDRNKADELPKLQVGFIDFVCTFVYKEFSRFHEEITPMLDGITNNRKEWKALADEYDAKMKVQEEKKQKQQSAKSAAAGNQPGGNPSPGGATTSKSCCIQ
human PDE6A/6B, sequence (P35913 other isoform, or with tags, fused parts or gaps isoform P35913-2): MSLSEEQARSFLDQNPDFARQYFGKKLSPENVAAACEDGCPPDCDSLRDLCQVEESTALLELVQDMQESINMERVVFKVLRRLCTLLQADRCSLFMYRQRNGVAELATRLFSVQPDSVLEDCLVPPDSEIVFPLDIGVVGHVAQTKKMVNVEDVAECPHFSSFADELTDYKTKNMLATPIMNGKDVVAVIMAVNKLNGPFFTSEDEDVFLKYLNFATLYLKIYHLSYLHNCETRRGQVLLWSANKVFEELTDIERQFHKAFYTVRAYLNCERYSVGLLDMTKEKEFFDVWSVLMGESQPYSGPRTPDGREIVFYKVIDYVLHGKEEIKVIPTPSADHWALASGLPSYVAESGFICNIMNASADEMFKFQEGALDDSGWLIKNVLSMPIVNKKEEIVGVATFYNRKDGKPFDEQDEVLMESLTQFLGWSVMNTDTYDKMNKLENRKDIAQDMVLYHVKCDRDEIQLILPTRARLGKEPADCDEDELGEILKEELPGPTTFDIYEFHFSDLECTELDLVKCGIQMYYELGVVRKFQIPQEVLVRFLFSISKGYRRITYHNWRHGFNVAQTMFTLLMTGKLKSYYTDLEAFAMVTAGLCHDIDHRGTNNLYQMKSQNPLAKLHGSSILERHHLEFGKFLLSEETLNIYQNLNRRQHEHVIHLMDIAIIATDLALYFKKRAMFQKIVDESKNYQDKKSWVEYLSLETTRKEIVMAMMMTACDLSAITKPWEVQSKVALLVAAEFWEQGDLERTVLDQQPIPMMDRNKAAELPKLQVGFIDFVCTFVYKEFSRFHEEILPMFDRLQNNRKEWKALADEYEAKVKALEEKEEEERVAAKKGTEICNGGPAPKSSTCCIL
human PDE3A (catalytic domain), sequence (Q14432 641-1141): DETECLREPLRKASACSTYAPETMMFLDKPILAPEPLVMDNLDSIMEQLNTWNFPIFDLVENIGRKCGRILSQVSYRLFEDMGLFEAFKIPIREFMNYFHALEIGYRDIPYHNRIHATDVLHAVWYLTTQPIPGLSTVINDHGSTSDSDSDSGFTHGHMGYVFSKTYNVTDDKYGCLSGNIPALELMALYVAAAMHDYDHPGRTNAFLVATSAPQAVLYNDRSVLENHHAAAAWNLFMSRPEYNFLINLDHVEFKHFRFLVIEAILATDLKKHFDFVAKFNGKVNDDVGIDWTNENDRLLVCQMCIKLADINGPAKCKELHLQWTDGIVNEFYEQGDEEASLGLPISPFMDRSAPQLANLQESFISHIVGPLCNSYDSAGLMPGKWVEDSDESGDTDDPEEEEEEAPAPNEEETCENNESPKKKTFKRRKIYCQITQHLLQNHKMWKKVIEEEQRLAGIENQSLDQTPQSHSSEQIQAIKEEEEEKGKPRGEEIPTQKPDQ

`CCCCn1c(=O)c2nnc(C3(C(F)(F)F)CC3)n2c2ncc(C)cc21` [Example 2, 5-Butyl-3-methyl-9-(1-(trifluoromethyl)cyclopropyl)pyrido[3,2-e][1,2,4]triazolo[4,3-a]pyrazin-6(5H)-one]: the IC50 was 1.62 ± 0.231 nM on human PDE1C; 12.1 ± 1.06 nM at human PDE1B; 8.62 ± 2.53 nM on human PDE1A; 26000 nM on human PDE4D; > 100000 nM in assay [1]; > 10000 nM at human PDE6A/6B.

Broadly, the IC50 is the midpoint of a concentration-inhibition curve.
